In PubChem BioAssay (NCI):
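The compound was tested at five concentrations on cells cultured in 96-well plates, with a 48-hour exposure period. Here, GI50 denotes the concentration required for 50% inhibition of growth. At the TGI there is no net growth.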

Tests used:
Test in all cases: NCI-60 cell line screen, 48 h
[1] = tested on: M14 melanoma
[2] = tested on: OVCAR-5 ovarian
[3] = tested on: BT-549 breast
[4] = tested on: A498 renal
[5] = tested on: DU-145 prostate
[6] = tested on: T-47D breast
[7] = tested on: MDA-MB-435
[8] = tested on: U251 CNS
[9] = tested on: MDA-MB-231 breast
[10] = tested on: SK-OV-3 ovarian
[11] = tested on: COLO 205 colon
[12] = tested on: PC-3 prostate
[13] = tested on: CAKI-1 renal
[14] = tested on: MALME-3M melanoma
[15] = tested on: OVCAR-4 ovarian
[16] = tested on: CCRF-CEM leukemia
[17] = tested on: K-562 leukemia
[18] = tested on: OVCAR-8 ovarian
[19] = tested on: NCI-H226 lung
[20] = tested on: SNB-19 CNS
[21] = tested on: TK-10 renal
[22] = tested on: LOX IMVI melanoma
[23] = tested on: SF-295 CNS
[24] = tested on: HL-60(TB) leukemia
[25] = tested on: SW-620 colon
[26] = tested on: ACHN renal
[27] = tested on: SF-268 CNS
[28] = tested on: OVCAR-3 ovarian
[29] = tested on: KM12 colon
[30] = tested on: IGROV1 ovarian
[31] = tested on: 786-0 renal
[32] = tested on: SK-MEL-2 melanoma
[33] = tested on: HCT-15 colon
[34] = tested on: NCI-H522 lung
[35] = tested on: UACC-257 melanoma
[36] = tested on: HOP-62 NSCLC
[37] = tested on: MOLT-4 leukemia
[38] = tested on: UACC-62 melanoma
[39] = tested on: RPMI-8226 leukemia
[40] = tested on: HCC-2998 colon
[41] = tested on: A549 NSCLC
[42] = tested on: HS 578T breast
[43] = tested on: SR leukemia
[44] = tested on: NCI-H460 lung
[45] = tested on: RXF 393 renal
[46] = tested on: SK-MEL-28 melanoma
[47] = tested on: SF-539 CNS
[48] = tested on: HCT-116 colon
[49] = tested on: SNB-75 CNS
[50] = tested on: UO-31 renal
[51] = tested on: HOP-92 NSCLC
[52] = tested on: EKVX NSCLC
[53] = tested on: NCI-H23 lung
[54] = tested on: SN12C renal
[55] = tested on: MCF7 breast
[56] = tested on: NCI/ADR-RES ovarian
[57] = tested on: SK-MEL-5 melanoma
[58] = tested on: HT29 colon

SMILES: CN1CCN(Cc2ccc(NC(=O)c3cncc(C#Cc4cnc5ccc(NCCO)nn45)c3)cc2C(F)(F)F)CC1
- GI50 [1]: 231 nM
- TGI [1]: 864 nM
- GI50 [2]: 342 nM
- TGI [2]: 4330 nM
- GI50 [3]: 824 nM
- TGI [3]: 1620 nM
- GI50 [4]: 385 nM
- TGI [4]: 946 nM
- GI50 [5]: 486 nM
- TGI [5]: 3470 nM
- GI50 [6]: 603 nM
- TGI [6]: 4220 nM
- GI50 [7]: 123 nM
- TGI [7]: 919 nM
- GI50 [8]: 609 nM
- TGI [8]: 1450 nM
- GI50 [9]: 79.5 nM
- TGI [9]: 335 nM
- GI50 [10]: 805 nM
- TGI [10]: 3200 nM
- GI50 [11]: 111 nM
- TGI [11]: 306 nM
- GI50 [12]: 457 nM
- TGI [12]: 3920 nM
- GI50 [13]: 764 nM
- TGI [13]: 3470 nM
- GI50 [14]: 135 nM
- TGI [14]: 635 nM
- GI50 [15]: 378 nM
- TGI [15]: 2100 nM
- GI50 [16]: 31 nM
- TGI [16]: 17800 nM
- GI50 [17]: 5 nM
- TGI [17]: 794 nM
- GI50 [18]: 698 nM
- TGI [18]: 4050 nM
- GI50 [19]: 75.8 nM
- TGI [19]: 1310 nM
- GI50 [20]: 901 nM
- TGI [20]: 3990 nM
- GI50 [21]: 1200 nM
- TGI [21]: 2990 nM
- GI50 [22]: 179 nM
- TGI [22]: 769 nM
- GI50 [23]: 717 nM
- TGI [23]: 4940 nM
- GI50 [24]: 138 nM
- TGI [24]: 609 nM
- GI50 [25]: 118 nM
- TGI [25]: 580 nM
- GI50 [26]: 1700 nM
- TGI [26]: 5860 nM
- GI50 [27]: 207 nM
- TGI [27]: 1110 nM
- GI50 [28]: 349 nM
- TGI [28]: 2060 nM
- GI50 [29]: 5 nM
- TGI [29]: 1300 nM
- GI50 [30]: 239 nM
- TGI [30]: 2440 nM
- GI50 [31]: 853 nM
- TGI [31]: 2030 nM
- GI50 [32]: 131 nM
- TGI [32]: 435 nM
- GI50 [33]: 1650 nM
- TGI [33]: 6490 nM
- GI50 [34]: 187 nM
- TGI [34]: 940 nM
- GI50 [35]: 608 nM
- TGI [35]: 2230 nM
- GI50 [36]: 324 nM
- TGI [36]: 1420 nM
- GI50 [37]: 141 nM
- TGI [37]: 3860 nM
- GI50 [38]: 532 nM
- TGI [38]: 1620 nM
- GI50 [39]: 1010 nM
- TGI [39]: 2970 nM
- GI50 [40]: 687 nM
- TGI [40]: 3200 nM
- GI50 [41]: 718 nM
- TGI [41]: 4650 nM
- GI50 [42]: 115 nM
- TGI [42]: 863 nM
- GI50 [43]: 58.4 nM
- TGI [43]: 1360 nM
- GI50 [44]: 209 nM
- TGI [44]: 718 nM
- GI50 [45]: 590 nM
- TGI [45]: 1350 nM
- GI50 [46]: 529 nM
- TGI [46]: 1740 nM
- GI50 [47]: 61.6 nM
- TGI [47]: 596 nM
- GI50 [48]: 92.1 nM
- TGI [48]: 675 nM
- GI50 [49]: 87.4 nM
- TGI [49]: 414 nM
- GI50 [50]: 2000 nM
- TGI [50]: 6880 nM
- GI50 [51]: 19 nM
- TGI [51]: 87.4 nM
- GI50 [52]: 673 nM
- TGI [52]: 4010 nM
- GI50 [53]: 277 nM
- TGI [53]: 1310 nM
- GI50 [54]: 172 nM
- TGI [54]: 2630 nM
- GI50 [55]: 90.3 nM
- TGI [55]: 787 nM
- GI50 [56]: 30100 nM
- TGI [56]: 50000 nM
- GI50 [57]: 797 nM
- TGI [57]: 1830 nM
- GI50 [58]: 188 nM
- TGI [58]: 1430 nM

SMILES: CNC(=O)c1c(NC(=O)c2ccc(F)cc2F)sc2c1CCC(=O)C2
- GI50 [3]: 345 nM
- TGI [3]: 2860 nM
- GI50 [8]: 288 nM
- TGI [8]: > 100000 nM
- GI50 [10]: 2590 nM
- TGI [10]: 9620 nM
- GI50 [13]: 236 nM
- TGI [13]: 1040 nM
- GI50 [16]: 146 nM
- TGI [16]: > 100000 nM
- GI50 [17]: 133 nM
- TGI [17]: > 100000 nM
- GI50 [18]: 288 nM
- TGI [18]: > 100000 nM
- GI50 [20]: 440 nM
- TGI [20]: > 52400 nM
- GI50 [21]: 431 nM
- TGI [21]: 17700 nM
- GI50 [23]: 1310 nM
- TGI [23]: 5710 nM
- GI50 [26]: 349 nM
- TGI [26]: 1080 nM
- GI50 [27]: 428 nM
- TGI [27]: > 100000 nM
- GI50 [31]: 390 nM
- TGI [31]: 13600 nM
- GI50 [36]: 1130 nM
- TGI [36]: > 100000 nM
- GI50 [37]: 230 nM
- TGI [37]: > 100000 nM
- GI50 [39]: 227 nM
- TGI [39]: > 100000 nM
- GI50 [42]: 439 nM
- TGI [42]: 5910 nM
- GI50 [43]: 89 nM
- TGI [43]: > 100000 nM
- GI50 [45]: 182 nM
- TGI [45]: 1730 nM
- GI50 [49]: 722 nM
- TGI [49]: 3300 nM
- GI50 [52]: 253 nM
- TGI [52]: > 100000 nM
- GI50 [53]: 251 nM
- TGI [53]: > 100000 nM
- GI50 [56]: 265 nM
- TGI [56]: > 100000 nM

SMILES: CC1(C)CC[C@]23CC[C@]4(C)[C@H](CC[C@@H]5[C@@]6(C)CC[C@H](N)C(C)(C)[C@@H]6CC[C@]54C)[C@H]2[C@H]1OC3
- GI50 [1]: 1920 nM
- TGI [1]: 3880 nM
- GI50 [2]: 1870 nM
- TGI [2]: 3950 nM
- GI50 [3]: 15400 nM
- TGI [3]: 29000 nM
- GI50 [4]: 11700 nM
- TGI [4]: 27100 nM
- GI50 [5]: 1890 nM
- TGI [5]: 3670 nM
- GI50 [6]: 3750 nM
- TGI [6]: 19300 nM
- GI50 [7]: 1910 nM
- TGI [7]: 3730 nM
- GI50 [8]: 1790 nM
- TGI [8]: 3660 nM
- GI50 [10]: 14100 nM
- TGI [10]: 28700 nM
- GI50 [11]: 1910 nM
- TGI [11]: 3620 nM
- GI50 [12]: 2340 nM
- TGI [12]: 6140 nM
- GI50 [13]: 1690 nM
- TGI [13]: 3190 nM
- GI50 [15]: 2750 nM
- TGI [15]: 7480 nM
- GI50 [16]: 2110 nM
- TGI [16]: 36300 nM
- GI50 [17]: 2080 nM
- TGI [17]: 5940 nM
- GI50 [18]: 2570 nM
- TGI [18]: 6840 nM
- GI50 [19]: 5220 nM
- TGI [19]: 31100 nM
- GI50 [20]: 1900 nM
- TGI [20]: 3720 nM
- GI50 [21]: 15700 nM
- TGI [21]: 31100 nM
- GI50 [23]: 1750 nM
- TGI [23]: 3270 nM
- GI50 [24]: 1670 nM
- TGI [24]: 3780 nM
- GI50 [25]: 2000 nM
- TGI [25]: 4100 nM
- GI50 [26]: 1820 nM
- TGI [26]: 3260 nM
- GI50 [27]: 5980 nM
- TGI [27]: 23500 nM
- GI50 [28]: 1830 nM
- TGI [28]: 3480 nM
- GI50 [29]: 1920 nM
- TGI [29]: 3650 nM
- GI50 [31]: 1660 nM
- TGI [31]: 3260 nM
- GI50 [32]: 2980 nM
- TGI [32]: 10100 nM
- GI50 [33]: 1620 nM
- TGI [33]: 3150 nM
- GI50 [34]: 2980 nM
- TGI [34]: 9750 nM
- GI50 [35]: 15300 nM
- TGI [35]: 35600 nM
- GI50 [36]: 1880 nM
- TGI [36]: 3780 nM
- GI50 [37]: 2170 nM
- TGI [37]: 7300 nM
- GI50 [38]: 1850 nM
- TGI [38]: 3900 nM
- GI50 [39]: 2730 nM
- TGI [39]: 7210 nM
- GI50 [40]: 1760 nM
- TGI [40]: 3330 nM
- GI50 [41]: 1980 nM
- TGI [41]: 4360 nM
- GI50 [42]: 2580 nM
- TGI [42]: 6900 nM
- GI50 [43]: 663 nM
- TGI [43]: 4560 nM
- GI50 [44]: 1850 nM
- TGI [44]: 3600 nM
- GI50 [45]: 1580 nM
- TGI [45]: 2940 nM
- GI50 [46]: 1830 nM
- TGI [46]: 3930 nM
- GI50 [47]: 1740 nM
- TGI [47]: 3220 nM
- GI50 [48]: 1740 nM
- TGI [48]: 3200 nM
- GI50 [49]: 17000 nM
- TGI [49]: 38900 nM
- GI50 [50]: 1500 nM
- TGI [50]: 2970 nM
- GI50 [51]: 2500 nM
- TGI [51]: 6590 nM
- GI50 [52]: 1830 nM
- TGI [52]: 3840 nM
- GI50 [54]: 1790 nM
- TGI [54]: 3570 nM
- GI50 [55]: 1620 nM
- TGI [55]: 3320 nM
- GI50 [57]: 1740 nM
- TGI [57]: 3200 nM
